Patent US9511050B2, “Methods and compositions for treating cancer” (GEORGETOWN UNIVERSITY, priority 2013, dated 2016)
Read-outs that look alike come from different tables or passages of the source.

Key:
Format in all cases: cell-based
[1] = tested on: PANC1 (a human pancreatic carcinoma); assay: IC50 activity in PANC1 cells
Protocol: (§1) Compounds provided in Table 2 were prepared using methods similar to those described herein. The structures and IC50 activities of particular compounds in PANC1 (a human pancreatic carcinoma), TC32 (human ESFT cell line), and TC71 (human ESFT cell line) cells are summarized in Table 2.

[2] = tested on: TC32 (human ESFT cell line); assay: IC50 activity in TC32 cells
Protocol: as §1

[3] = tested on: TC71 (human ESFT cell line); assay: IC50 activity in TC71 cells
Protocol: as §1
Growth inhibition of ESFT cells was measured for various concentrations of particular compounds.

[4] = Homo sapiens, PANC-1, PANC1 cells
[5] = Homo sapiens, TC-32, TC32 cells
[6] = Homo sapiens, TC-71, TC71 cells
[7] = PANC1 cells, read-out: IC50 PANC 1

IC50 [1, 4] [µM] | IC50 [2, 5] [µM] | IC50 [3, 6] [µM] | IC50 ([2]; TC32 cells) [µM] | IC50 ([3]; TC71 cells) [µM] | IC50 [1, 7] [µM] | Structure (SMILES) | potency compared with YK-4-279 ([3]; TC71 cells)
≥ 40 | 10.3 | 12.3 | – | – | – | N#Cc1ccc(C(=O)CC2(O)C(=O)Nc3c(Cl)ccc(Cl)c32)cc1 (centres unmarked) [PT-1-11] | –
≥ 40 | ≥ 40 | ≥ 40 | – | – | – | COc1ccccc1C(=O)CC1(O)C(=O)Nc2c(Cl)ccc(Cl)c21 (centres unmarked) [PT-1-12] | –
≥ 40 | ≥ 40 | ≥ 40 | – | – | – | COc1cc(C(=O)CC2(O)C(=O)Nc3c(Cl)ccc(Cl)c32)cc(OC)c1OC (centres unmarked) [PT-1-13] | –
11.1 | 2.7 | 3.57 | – | – | – | CCOc1ccc(C(=O)CC2(O)C(=O)Nc3c(Cl)ccc(Cl)c32)cc1 (centres unmarked) [PT-1-14] | –
10.9 | 2.95 | 6.94 | – | – | – | O=C(CC1(O)C(=O)Nc2c(Cl)ccc(Cl)c21)c1ccc(C(F)(F)F)cc1 (centres unmarked) [PT-1-15] | –
≥ 40 | ≥ 40 | ≥ 40 | – | – | – | O=C(CC1(O)C(=O)Nc2c(Cl)ccc(Cl)c21)c1ccc(OC(F)(F)F)cc1 (centres unmarked) [PT-1-16] | –
≥ 40 | 0.259 | 0.401 | 0.284 | 0.294 | – | CN(C)c1ccc(C(=O)CC2(O)C(=O)Nc3c(Cl)ccc(Cl)c32)cc1 (centres unmarked) [PT-1-17] | appeared to be more potent
≥ 40 | ≥ 40 | ≥ 40 | – | – | – | COc1cccc(C(=O)CC2(O)C(=O)Nc3c(Cl)ccc(Cl)c32)c1 (centres unmarked) [PT-1-18] | –
22.9 | 2.61 | 2.82 | – | – | – | COc1ccc(C(=O)CC2(O)C(=O)Nc3c(Cl)ccc(Cl)c32)c(OC)c1 (centres unmarked) [PT-1-19] | –
≥ 40 | ≥ 40 | ≥ 40 | – | – | – | COc1cccc(C(=O)CC2(O)C(=O)Nc3c(Cl)ccc(Cl)c32)c1OC (centres unmarked) [PT-1-20] | –
≥ 40 | ≥ 40 | ≥ 40 | – | – | – | COc1ccc(C(=O)CC2(O)C(=O)Nc3c(Cl)ccc(Cl)c32)cc1OC (centres unmarked) [PT-1-21] | –
≥ 40 | 8.99 | ≥ 40 | – | – | – | COc1cc(OC)cc(C(=O)CC2(O)C(=O)Nc3c(Cl)ccc(Cl)c32)c1 (centres unmarked) [PT-1-22] | –
≥ 40 | 2.7 | 4.42 | – | – | – | COc1ccc(C(=O)CC2(O)C(=O)Nc3c(Cl)ccc(Cl)c32)c(OC)c1OC (centres unmarked) [PT-1-23] | –
≥ 40 | 1.03 | 1.64 | – | – | – | COc1ccc(C(=O)/C=C2\C(=O)Nc3c(Cl)ccc(Cl)c32)cc1 [PT-1-33] | –
– | 0.291 | – | 0.383 | – | – | CN(C)c1ccc(C(=O)/C=C2\C(=O)Nc3c(Cl)ccc(Cl)c32)cc1 [PT-1-38] | –
5.41 | 1.05 | 1.81 | 1.66 | 2.32 | 6.76 | COc1ccc(C(=O)/C=C2\C(=O)Nc3c(Cl)ccc(Cl)c32)c(OC)c1 [PT-1-39] | –
2.85 | 1.19 | 2.14 | 1.61 | 1.6 | 5.16 | COc1ccc(C(=O)/C=C2\C(=O)Nc3c(Cl)ccc(Cl)c32)c(OC)c1OC [PT-1-41] | –
11 | 1.41 | 5.66 | – | – | – | CCOc1ccc(C(=O)/C=C2\C(=O)Nc3c(Cl)ccc(Cl)c32)cc1 [PT-1-43] | –
2.2 | ≥ 40 | 4.08 | – | – | – | CN(C)c1ccc(C(=O)/C=C2/C(=O)Nc3c(Cl)ccc(Cl)c32)cc1 [PT-1-53] | –
– | 1.5 | 1.36 | 2.57 | 2.2 | – | COc1ccc(C(=O)/C=C2/C(=O)Nc3c(Cl)ccc(Cl)c32)cc1 [PT-1-54] | –
≥ 40 | ≥ 40 | ≥ 40 | – | – | – | O=C(CC1(O)C(=O)Nc2c(Cl)ccc(Cl)c21)c1ccc(Oc2ccccc2)cc1 (centres unmarked) [PT-1-60] | –
28.1 | 0.982 | 0.909 | 1.2 | 1.41 | – | CSc1ccc(C(=O)CC2(O)C(=O)Nc3c(Cl)ccc(Cl)c32)cc1 (centres unmarked) [PT-1-67] | –

IC50 [1, 4] [µM] | IC50 [2, 5] [µM] | IC50 [3, 6] [µM] | IC50 ([2]; TC32 cells) [µM] | IC50 ([3]; TC71 cells) [µM] | IC50 [1, 7] [µM] | Structure (SMILES) | potency compared with YK-4-279 ([3]; TC71 cells)
≥ 40 | ≥ 40 | ≥ 40 | – | – | – | CC(C)Oc1ccc(C(=O)CC2(O)C(=O)Nc3c(Cl)ccc(Cl)c32)cc1 (centres unmarked) [PT-1-69] | –
≥ 40 | ≥ 40 | ≥ 40 | – | – | – | COc1ccc(C(=O)CC2(O)C(=O)Nc3ccccc32)cc1 (centres unmarked) [PT-1-267] | –
≥ 40 | ≥ 40 | ≥ 40 | – | – | – | COc1ccc(C(=O)CC2(O)C(=O)Nc3cc(Br)cc(Br)c32)cc1 (centres unmarked) [PT-1-271] | –
≥ 40 | ≥ 40 | ≥ 40 | – | – | – | COc1ccc(C(=O)CC2(O)C(=O)Nc3cccc(Cl)c32)cc1 (centres unmarked) [PT-1-275] | –
≥ 40 | ≥ 40 | ≥ 40 | – | – | – | C/C=C1\NC(=O)C(O)(CC(=O)c2ccc(OC)cc2)\C1=C/C (centres unmarked) [PT-2-37] | –
≥ 40 | ≥ 40 | ≥ 40 | – | – | – | COc1ccc(C(=O)CC2(O)C(=O)Nc3cc(Cl)c(Cl)cc32)cc1 (centres unmarked) [PT-2-39] | –
≥ 40 | ≥ 40 | ≥ 40 | – | – | – | COc1ccc(C(=O)CC2(O)C(=O)Nc3c(Cl)cccc32)cc1 (centres unmarked) [PT-2-52] | –
≥ 40 | 12.4 | ≥ 40 | – | – | – | COc1ccc(C(=O)CC2(O)C(=O)Nc3ccc(Cl)cc32)cc1 (centres unmarked) [PT-2-56] | –
≥ 40 | ≥ 40 | ≥ 40 | – | – | – | COc1ccc(CC(=O)CC2(O)C(=O)Nc3c(Cl)ccc(Cl)c32)cc1 (centres unmarked) [PT-2-59] | –
≥ 40 | ≥ 40 | ≥ 40 | – | – | – | COc1ccc(C(=O)CC2(O)C(=O)N(C)c3ccccc32)cc1 (centres unmarked) [PT-2-64] | –
≥ 40 | 2.18 | – | 2.31 | – | – | COc1ccc(C(=O)CC2(O)C(=O)N(C)c3c(Cl)ccc(Cl)c32)cc1 (centres unmarked) [PT-2-69] | –
≥ 40 | ≥ 40 | ≥ 40 | – | – | – | CCCC(=O)CC1(O)C(=O)N(C)c2c(Cl)ccc(Cl)c21 (centres unmarked) [PT-2-71] | –
≥ 40 | ≥ 40 | ≥ 40 | – | – | – | COc1ccc(C(=O)CC2(OC)C(=O)Nc3c(Cl)ccc(Cl)c32)cc1 (centres unmarked) [PT-2-78] | –
11.2 | 12.1 | 17 | – | – | – | COc1ccc(C(=O)CC2(OC)C(=O)N(C)c3c(Cl)ccc(Cl)c32)cc1 (centres unmarked) [PT-2-79] | –
11 | ≥ 40 | 23.9 | – | – | – | O=C(CC1(O)C(=O)Nc2c(Cl)ccc(Cl)c21)c1ccc(Cl)cc1 (centres unmarked) [YK-4-275] | –
≥ 40 | ≥ 40 | ≥ 40 | – | – | – | O=C(CC1(O)C(=O)N(Cc2ccccc2)c2c(Cl)ccc(Cl)c21)c1ccc(Cl)cc1 (centres unmarked) [YK-4-276] | –
≥ 40 | ≥ 40 | ≥ 40 | – | – | – | O=C(CC1(O)C(=O)Nc2c(Cl)ccc(Cl)c21)c1ccc(I)cc1 (centres unmarked) [YK-4-277] | –
≥ 40 | ≥ 40 | ≥ 40 | – | – | – | O=C(CC1(O)C(=O)Nc2c(Cl)ccc(Cl)c21)c1ccc(F)cc1 (centres unmarked) [YK-4-278] | –
≥ 40 | 12.1 | 30.1 | – | – | – | Cc1ccc(C(=O)CC2(O)C(=O)Nc3c(Cl)ccc(Cl)c32)cc1 (centres unmarked) [YK-4-280] | –
≥ 40 | 7.22 | 29.6 | – | – | – | O=C(CC1(O)C(=O)Nc2c(Cl)ccc(Cl)c21)c1cccc(Cl)c1 (centres unmarked) [YK-4-281] | –
≥ 40 | ≥ 40 | ≥ 40 | – | – | – | O=C(CC1(O)C(=O)Nc2c(Cl)ccc(Cl)c21)c1ccccc1Cl (centres unmarked) [YK-4-282] | –
12.7 | 8.91 | 26 | – | – | – | O=C(CC1(O)C(=O)Nc2c(Cl)ccc(Cl)c21)c1ccc(Br)cc1 (centres unmarked) [YK-4-283] | –
